Reference: ChEMBL document CHEMBL1201862, “PubChem BioAssay data set” (2004)
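Step 1: Grow cells in 96-well plates. Step 2: Expose to compound for 48 hours at 5 concentrations. Step 3: Interpolate endpoints linearly; if unreached, use highest concentration. GI50 = concentration required for 50% inhibition of growth.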 The source made the active and inactive calls. Rule as the data show it: active = GI50 up to about 1.1 µM and inactive = higher.

What was measured:
Test in all cases: inhibition of tumour cell growth, NCI panel, 48 h
MDA-MB-231 = test system: MDA-MB-231
SW-620 = test system: SW-620
SK-MEL-5 = test system: SK-MEL-5
IGROV-1 = test system: IGROV-1
MDA-MB-435 = test system: MDA-MB-435
A549 = test system: A549
OVCAR-4 = test system: OVCAR-4
HT-29 = test system: HT-29
RXF 393 = test system: RXF 393
HCT-116 = test system: HCT-116
OVCAR-8 = test system: OVCAR-8
SF-295 = test system: SF-295
SK-OV-3 = test system: SK-OV-3
KM12 = test system: KM12
NCI/ADR-RES = test system: NCI/ADR-RES
UACC-62 = test system: UACC-62
CCRF-CEM = test system: CCRF-CEM
K562 = test system: K562
Hs-578T = test system: Hs-578T
M14 = test system: M14

Row | Structure (SMILES) | GI50 (MDA-MB-231) | GI50 (SW-620) | GI50 (SK-MEL-5) | GI50 (IGROV-1) | GI50 (MDA-MB-435) | GI50 (A549) | GI50 (OVCAR-4) | GI50 (HT-29) | GI50 (RXF 393) | GI50 (HCT-116) | GI50 (OVCAR-8) | GI50 (SF-295) | GI50 (SK-OV-3) | GI50 (KM12) | GI50 (NCI/ADR-RES) | GI50 (UACC-62) | GI50 (CCRF-CEM) | GI50 (K562) | GI50 (Hs-578T) | GI50 (M14)
1 | O=C(Oc1ccc(C(c2c(O)c3ccccc3oc2=O)c2c(O)c3ccccc3oc2=O)cc1)c1ccc(C(=O)c2ccccc2)cc1 | 35.6 µM (inactive) | 32.7 µM (inactive) | 29.3 µM (inactive) | 21.4 µM (inactive) | 20.3 µM (inactive) | 25.3 µM (inactive) | 38.4 µM (inactive) | 17.7 µM (inactive) | 27.3 µM (inactive) | 34.2 µM (inactive) | 16.6 µM (inactive) | 22 µM (inactive) | 16.7 µM (inactive) | 17.1 µM (inactive) | 17.3 µM (inactive) | 19.6 µM (inactive) | 22.6 µM (inactive) | 22.1 µM (inactive) | 37.7 µM (inactive) | –
2 | COc1ccc(C2C3=C(N=C4SC(C(C)=O)=C(C)N42)c2ccccc2CC3)cc1 (stereo not given) | > 100 µM (inactive) | > 100 µM (inactive) | 50.5 µM (inactive) | 10.1 µM (inactive) | > 100 µM (inactive) | 83 µM (inactive) | > 100 µM (inactive) | 6.52 µM (inactive) | 23.7 µM (inactive) | 15 µM (inactive) | > 100 µM (inactive) | > 100 µM (inactive) | > 100 µM (inactive) | 38.6 µM (inactive) | > 10 µM (inactive) | 45.7 µM (inactive) | 28.8 µM (inactive) | – | 69 µM (inactive) | > 100 µM (inactive)
3 | Nc1n[n+]2cc(-c3ccccc3)n(CC(=O)c3ccccc3)c2s1 | 29.5 µM (inactive) | 23.2 µM (inactive) | 23.1 µM (inactive) | 70.8 µM (inactive) | 36.9 µM (inactive) | > 100 µM (inactive) | – | 27.2 µM (inactive) | 20.4 µM (inactive) | 16.7 µM (inactive) | 52 µM (inactive) | > 100 µM (inactive) | > 100 µM (inactive) | 19.8 µM (inactive) | > 100 µM (inactive) | 30.5 µM (inactive) | 15.8 µM (inactive) | 29.7 µM (inactive) | 17 µM (inactive) | 21.3 µM (inactive)
4 | CN1CN(c2ccccc2)C2(CCN(Cc3nc4ccccc4s3)CC2)C1=O | 14.1 µM (inactive) | – | 16.1 µM (inactive) | 15.7 µM (inactive) | 17.8 µM (inactive) | 17.3 µM (inactive) | 18.6 µM (inactive) | 17 µM (inactive) | 14.6 µM (inactive) | 14.8 µM (inactive) | 14.4 µM (inactive) | 17.9 µM (inactive) | 22.2 µM (inactive) | – | 15.5 µM (inactive) | 16 µM (inactive) | 17.3 µM (inactive) | 13.8 µM (inactive) | 18.7 µM (inactive) | 13.5 µM (inactive)
5 | CC1(C)C2CC3C4CC5(Nc6ccccc6C5N41)[C@]3(C)CC2=O (stereo not given in full) | > 50 µM (inactive) | > 50 µM (inactive) | > 50 µM (inactive) | > 50 µM (inactive) | > 50 µM (inactive) | > 50 µM (inactive) | > 50 µM (inactive) | > 50 µM (inactive) | > 50 µM (inactive) | > 50 µM (inactive) | > 50 µM (inactive) | > 50 µM (inactive) | – | > 50 µM (inactive) | > 50 µM (inactive) | > 50 µM (inactive) | > 50 µM (inactive) | > 50 µM (inactive) | > 50 µM (inactive) | –
6 | COc1ccc(N2C(=O)c3cc(C)cnc3S2(=O)=O)cc1 | > 100 µM (inactive) | > 100 µM (inactive) | > 100 µM (inactive) | > 100 µM (inactive) | > 100 µM (inactive) | > 100 µM (inactive) | > 100 µM (inactive) | > 100 µM (inactive) | > 100 µM (inactive) | > 100 µM (inactive) | > 100 µM (inactive) | > 100 µM (inactive) | > 100 µM (inactive) | > 100 µM (inactive) | > 100 µM (inactive) | > 100 µM (inactive) | > 100 µM (inactive) | > 100 µM (inactive) | > 100 µM (inactive) | –
7 | CCOC(=O)c1cc([N+](=O)[O-])c(Sc2ncnc3nc[nH]c23)c([N+](=O)[O-])c1 | 4.92 µM (inactive) | 2.18 µM (inactive) | 10.7 µM (inactive) | 1.26 µM (inactive) | 2.47 µM (inactive) | 20.5 µM (inactive) | – | 3.06 µM (inactive) | 9.59 µM (inactive) | 1.87 µM (inactive) | 4.74 µM (inactive) | 3.36 µM (inactive) | 0.308 µM (active) | 9.2 µM (inactive) | 2.82 µM (inactive) | 2.46 µM (inactive) | 1.27 µM (inactive) | 0.53 µM (active) | 9.64 µM (inactive) | 2.31 µM (inactive)
8 | CCOP(=O)(C/C=C/Cn1nc(Br)c(=O)[nH]c1=O)OCC | > 100 µM (inactive) | > 100 µM (inactive) | > 100 µM (inactive) | > 100 µM (inactive) | > 100 µM (inactive) | > 100 µM (inactive) | > 100 µM (inactive) | > 100 µM (inactive) | > 100 µM (inactive) | > 100 µM (inactive) | > 100 µM (inactive) | > 100 µM (inactive) | – | > 100 µM (inactive) | > 100 µM (inactive) | > 100 µM (inactive) | > 100 µM (inactive) | > 100 µM (inactive) | > 100 µM (inactive) | > 100 µM (inactive)
9 | COC(=O)/C=C/c1ccc2c(c1)CCC2 | 63.2 µM (inactive) | 5.13 µM (inactive) | 30.2 µM (inactive) | 36.5 µM (inactive) | 63.1 µM (inactive) | 46.1 µM (inactive) | 74.3 µM (inactive) | 26.8 µM (inactive) | 21 µM (inactive) | 22.3 µM (inactive) | 53.5 µM (inactive) | 56 µM (inactive) | > 100 µM (inactive) | – | 24.5 µM (inactive) | – | 46.9 µM (inactive) | 30.8 µM (inactive) | > 100 µM (inactive) | 64.3 µM (inactive)
10 | C/C(=N\O)C1CC2C=C(C#N)C1N(Cc1ccccc1)C2 (stereo not given) | > 100 µM (inactive) | > 100 µM (inactive) | > 100 µM (inactive) | – | > 100 µM (inactive) | > 100 µM (inactive) | – | > 100 µM (inactive) | > 100 µM (inactive) | > 100 µM (inactive) | 45.3 µM (inactive) | > 100 µM (inactive) | > 100 µM (inactive) | > 100 µM (inactive) | > 100 µM (inactive) | > 100 µM (inactive) | > 100 µM (inactive) | > 100 µM (inactive) | > 100 µM (inactive) | > 100 µM (inactive)
11 | CN(C)c1ccc(C(c2ccc(Cl)cc2)c2ccc(N(C)C)cc2)cc1 | > 100 µM (inactive) | > 100 µM (inactive) | 92.9 µM (inactive) | > 100 µM (inactive) | > 100 µM (inactive) | > 100 µM (inactive) | – | > 100 µM (inactive) | 28.8 µM (inactive) | > 100 µM (inactive) | 99.1 µM (inactive) | > 100 µM (inactive) | > 100 µM (inactive) | > 100 µM (inactive) | > 100 µM (inactive) | > 100 µM (inactive) | 72.9 µM (inactive) | 83 µM (inactive) | 90.6 µM (inactive) | > 100 µM (inactive)
12 | Cc1ccccc1OC(C)C(=O)NN1C(=O)CSC1c1ccc(Cl)cc1 (stereo not given) | 26.2 µM (inactive) | 32.1 µM (inactive) | 49.9 µM (inactive) | 38.5 µM (inactive) | 57.9 µM (inactive) | 30.2 µM (inactive) | 36.4 µM (inactive) | 18.4 µM (inactive) | 38.5 µM (inactive) | 31.4 µM (inactive) | 52 µM (inactive) | 25.6 µM (inactive) | 47.1 µM (inactive) | 42.2 µM (inactive) | 54.3 µM (inactive) | 58.9 µM (inactive) | – | 23.6 µM (inactive) | 41.8 µM (inactive) | 41.5 µM (inactive)
13 | C[C@@H](C(=O)O)N1C(c2ccco2)=C(/C(C=O)=C\c2ccco2)C(=O)/C1=C\c1ccco1 | > 100 µM (inactive) | > 100 µM (inactive) | > 100 µM (inactive) | > 100 µM (inactive) | > 100 µM (inactive) | > 100 µM (inactive) | > 100 µM (inactive) | > 100 µM (inactive) | > 100 µM (inactive) | > 100 µM (inactive) | > 100 µM (inactive) | > 100 µM (inactive) | – | > 100 µM (inactive) | > 100 µM (inactive) | > 100 µM (inactive) | > 100 µM (inactive) | > 100 µM (inactive) | > 100 µM (inactive) | > 100 µM (inactive)
14 | NC(=S)N/N=c1\cc(C(=O)Nc2ccc([N+](=O)[O-])cc2[N+](=O)[O-])oc2ccccc12 | > 100 µM (inactive) | > 100 µM (inactive) | > 100 µM (inactive) | > 100 µM (inactive) | > 100 µM (inactive) | > 100 µM (inactive) | > 100 µM (inactive) | > 100 µM (inactive) | > 100 µM (inactive) | > 100 µM (inactive) | > 100 µM (inactive) | > 100 µM (inactive) | 99.5 µM (inactive) | > 100 µM (inactive) | > 100 µM (inactive) | > 100 µM (inactive) | > 100 µM (inactive) | – | > 100 µM (inactive) | > 100 µM (inactive)
15 | CC(C)(C)C(=O)C(C(c1ccccc1)N1CCOCC1)N1CCOCC1 (stereo not given) | > 100 µM (inactive) | > 100 µM (inactive) | – | > 100 µM (inactive) | > 100 µM (inactive) | > 100 µM (inactive) | > 100 µM (inactive) | > 100 µM (inactive) | > 100 µM (inactive) | > 100 µM (inactive) | > 100 µM (inactive) | > 100 µM (inactive) | – | > 100 µM (inactive) | > 100 µM (inactive) | > 100 µM (inactive) | > 100 µM (inactive) | > 100 µM (inactive) | > 100 µM (inactive) | > 100 µM (inactive)
